Reference: patent US6951848B2, “Functionalized heterocycles as modulators of chemokine receptor function and methods of use therefor” (Millennium Pharmaceuticals, Inc.,, priority 2001, dated 2005)

What was measured:
CCR-5 = target: T1, CCR-5 (Homo sapiens, UniProt P51681); assay: 125I-gp120/sCD4/CCR-5 receptor binding assay; conditions: membranes from CCR-5/L 1.2 cells, 3 nM sCD4, 0.1 nM 125I-gp120 (HIV-1 JR-FL); read-out: IC50 for inhibition of binding of sCD-4/GP-120 to CCR-5
T1 construct: expressed in transfected cells; host or cells: L1.2 cells (CCR-5/L1.2 transfectants), membranes
Method: CCR-5 Receptor Binding Assay The compounds of the present invention were evaluated using the following CCR-5 receptor binding assay. The ^125I-gp120/sCD4/CCR-5 binding assay was carried out similarly as described in Wu et al., Nature, 1996;384:179-183. Briefly, the envelope gp120 protein derived from HIV-1 JR-FL (Trkola et al., Nature, 1996;384:184-186), an M-tropic strain, was iodinated using solid phase lactoperoxidase to a specific activity of 20 μCi/μg. For each binding reaction (in a final volume of 100 μL binding buffer [50 mM HEPES, pH 7.5, 1 mM CaCl2, 5 mM MgCl2, and 0.5% BSA]), 25 μL (2.5 μg) of membranes prepared from CCR-5/L 1.2 cells were mixed with 25 μL (3 nM) sCD4, followed by 25 μL (0.1 nM) radio-labeled gp120 in the presence or absence of 25 μL compound dissolved in DMSO (final concentration of DMSO 0.5%). The reactions were incubated at room temperature for 45 to 60 minutes and stopped by transferring the mixture to GFB filter plates, which were then washed 3 to 4 times with binding buffer containing 0.5 M NaCl. The plates were dried and MicroScint scintillation fluid was added before counting. […] The compounds of Examples 56 and 66 had IC50s of about […]. […] Preferred compounds can inhibit the binding of sCD-4/GP-120 to CCR-5 with IC50s of about 10 μM to about 100 μM or about 1 nM to about 10 μM

T1 sequence (P51681 whole entry): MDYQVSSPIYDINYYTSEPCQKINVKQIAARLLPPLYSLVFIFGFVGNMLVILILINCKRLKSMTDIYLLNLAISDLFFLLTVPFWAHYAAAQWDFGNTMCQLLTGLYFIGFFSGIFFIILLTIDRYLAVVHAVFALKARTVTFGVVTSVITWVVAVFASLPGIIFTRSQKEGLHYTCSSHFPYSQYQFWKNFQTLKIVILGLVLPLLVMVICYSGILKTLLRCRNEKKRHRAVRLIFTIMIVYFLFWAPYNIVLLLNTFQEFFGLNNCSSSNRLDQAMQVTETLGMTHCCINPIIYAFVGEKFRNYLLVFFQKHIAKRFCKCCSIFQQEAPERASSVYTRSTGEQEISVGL

IC50 (CCR-5): 1930 ± 320 nM
melting point: 130 to 134 °C
SMILES: CCN(CC)CCc1ccc2[nH]c(C)c(C(=O)OCc3ccccc3)c2c1.Cl [Example 72, 5-(2-Diethylamino-ethyl)-2-methyl-1H-indole-3-carboxylic acid benzyl ester hydrochloride]
